Measured values reported in PubChem BioAssay (NCI).
Several values for one entry are separate records, joined by “and”; a condition that tells them apart may be missing. Identical values can stand only once.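 How tested: cells in 96-well plates exposed to compound for 48 hours at five concentrations. GI50: concentration for 50% inhibition of growth. Definition used: TGI = concentration required for complete inhibition of growth.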

How the values were obtained:
Assay in all cases: NCI tumour cell line growth inhibition, 48 h
A498 renal = system: A498 renal
HCT-15 colon = system: HCT-15 colon
OVCAR-8 ovarian = system: OVCAR-8 ovarian
RPMI-8226 leukemia = system: RPMI-8226 leukemia
T-47D breast = system: T-47D breast
SK-OV-3 ovarian = system: SK-OV-3 ovarian
M14 melanoma = system: M14 melanoma
SF-539 CNS = system: SF-539 CNS
UACC-62 melanoma = system: UACC-62 melanoma

Row | SMILES | TGI (A498 renal) [µM] | TGI (HCT-15 colon) | TGI (OVCAR-8 ovarian) | TGI (RPMI-8226 leukemia) | TGI (T-47D breast) [µM] | TGI (SK-OV-3 ovarian) [µM] | TGI (M14 melanoma) | TGI (SF-539 CNS) | TGI (UACC-62 melanoma) | GI50 (HCT-15 colon) [µM] | GI50 (OVCAR-8 ovarian) [µM] | GI50 (RPMI-8226 leukemia) [µM] | GI50 (SK-OV-3 ovarian) [µM] | GI50 (UACC-62 melanoma) [µM] | GI50 (A498 renal) [µM] | GI50 (M14 melanoma) [µM]
1 | COc1cc(C2c3cc4c(cc3OC(NNc3ccccc3)C2C)OCO4)cc(OC)c1O (centres undefined) | 16.3 | 11.9 µM | 23.8 µM | 9.78 µM | 10.7 | 22.7 | 13.3 µM | 2.98 µM | 6.03 µM | – | – | – | – | – | – | –
2 | NCCN(CCN)/[N+]([O-])=N/O | > 100 | > 100 µM | > 100 µM | > 100 µM | > 100 | > 100 | > 100 µM | > 100 µM | > 100 µM | – | – | – | – | – | – | –
3 | Cc1csc2c(=O)n(COCc3ccccc3)c(=O)[nH]c12 | > 100 | – | > 100 µM | > 100 µM | – | – | > 100 µM | > 100 µM | – | – | – | – | – | – | – | –
4 | NC(CS)C(=O)NCCNc1ccc(NCCNC(=O)C(N)CS)c2c1C(=O)c1c(O)ccc(O)c1C2=O (centres undefined) | 0.344 | 0.864 µM and 0.584 µM | 0.574 µM and 0.174 µM | 0.744 µM and 0.0804 µM | 1.45 | – | 1.28 µM and 1.1 µM | 0.728 µM and 0.193 µM | 0.516 µM and 0.249 µM | 0.0384 | 0.0108 | 0.0152 | 0.0165 | 0.0196 | – | –
5 | O=[N+]([O-])c1ccc2c(N=Nc3ccc4ccccc4c3O)c(O)cc(S(=O)(=O)O)c2c1 | > 100 | > 100 µM | > 93.6 µM | 61.5 µM | > 100 | > 100 | 32.4 µM | > 28.5 µM | 71.9 µM | – | – | – | – | – | – | –
6 | O=C1C(c2c(O)[nH]c3ccc(I)cc23)=Nc2ccccc21 | 5.57 | > 100 µM | 4.74 µM | > 100 µM | > 100 | 22.8 | > 100 µM | 23.3 µM | 21.3 µM | – | – | – | – | – | – | –
7 | CC(=O)CC12NC(=O)N(C)N=C1N(C)C(=O)N(C)C2=O (centres undefined) | > 100 | > 100 µM | > 100 µM | > 100 µM | > 100 | > 100 | > 100 µM | 72.9 µM | 73.3 µM | – | – | – | – | – | – | –
8 | N#Cc1c(O)c(C=O)c(=O)n2c1[nH]c1ccccc12 | > 100 | > 100 µM | > 100 µM | > 100 µM | – | > 100 | > 100 µM | > 100 µM | > 100 µM | – | – | – | – | – | – | –
9 | CNC(=O)c1cc(Oc2cccc3nc(NC(=O)Nc4ccc(F)cc4F)ccc23)ccn1 | 23.3 | > 50 µM | > 50 µM | > 50 µM | – | – | > 50 µM | – | – | 0.302 | 1.65 | 2.2 | – | – | 0.418 | 1.89
10 | COC(=O)[C@@H](NC(=O)c1ccc(CNC(=O)/C(C)=C/c2ccccc2)cc1)C(C)C | > 100 | > 100 µM | > 100 µM | > 100 µM | > 100 | > 100 | > 100 µM | > 100 µM | > 100 µM | – | – | – | – | – | – | –
11 | O=C1[C@H](O)[C@@H]2CCC[C@@]23CCCN13 | > 100 | > 100 µM | > 100 µM | > 100 µM | > 100 | > 100 | > 100 µM | > 100 µM | > 100 µM | – | – | – | – | – | – | –
